Data on 16 molecules can be found in publication PMC7461116, “Synthesis, Anticonvulsant and Antinociceptive Activity of New Hybrid Compounds: Derivatives of 3-(3-Methylthiophen-2-yl)-pyrrolidine-2,5-dione” (International Journal of Molecular Sciences, 2020).

Series [1] concerns maximal electroshock seizures. The series can be described thus: Maximal electroshock seizure (MES) test. In kind it is in vivo, mice. The following applies: Mus musculus; mice, ip, 100 mg/kg, 0.5 h; read-out: MES: number of mice protected/number of mice tested (converted). The protocol:
The MES test was performed as previously described. Stimuli (25 mA, 0.2 s, 50 Hz) were generated by a constant current stimulator (Rodent shocker, Type 221, Hugo Sachs Elektronik, Germany) and delivered with the use of auricular electrodes. During the stimulation, each mouse was restrained manually, and immediately after the stimulation gently released for observation. The endpoint was the tonic extension of the hind limbs. Mice not displaying hindlimb tonic extension were considered to be protected from seizure. The initial anticonvulsant screening of the tested compounds was performed at a fixed dose of 100 mg/kg (four mice per group). […] To evaluate the ED50, at least three groups of animals were injected with various doses of tested compounds. Each group consisted of six animals.

The subject of series [2] is 6 Hz psychomotor seizures. The experiment in a line: 6 Hz (32 mA) psychomotor seizure test. The conditions noted are these: Mus musculus, 32 mA; for responders at 100 mg/kg: mice, ip, 0.5 h, read-out: 6 Hz: number of mice protected/number of mice tested (converted). In kind it is in vivo, mice. From the text:
Psychomotor seizures were induced via corneal stimulation (6 Hz, 32 mA, 0.2 ms rectangular pulse width, 3 s duration) using a constant-current device (ECT Unit 57800, Ugo Basile, Italy). A drop of 1% solution of lidocaine hydrochloride was applied to the mouse corneas before stimulation to provide local anesthesia and ensure optimal current conductivity. After the electrical stimulation, mice were gently released and observed for the presence or absence of seizure activity, being characterized by immobility associated with rearing, forelimb clonus, twitching of the vibrissae, stun, and Straub-tail. Lack of the above symptoms or their cessation within 10 s from the stimulation was considered as absence of seizure activity. The initial anticonvulsant screening of the tested compounds was performed at a fixed dose of 100 mg/kg (four mice per group). Then ED50 was calculated for active compounds as described above.

Series [3] concerns PTZ-induced clonic seizures. The experiment in a line: Subcutaneous pentylenetetrazole (scPTZ) seizure test. In kind it is in vivo. The following applies: mice, 100 mg/kg. The protocol: Clonic convulsions were induced by the subcutaneous (sc) administration of PTZ at a dose of 100 mg/kg. After PTZ injection, the mice were placed separately and observed during the next 30 min for the occurrence of clonic seizures. Clonic seizures were defined as clonus of the whole body lasting more than 3 s, with an accompanying loss of righting reflex. The latency to first clonus, the number of seizure episodes, and mortality rate were noted and compared with vehicle-treated and drug-treated groups. The absence of clonic convulsions within the observed time period was interpreted as the compound’s ability to protect against PTZ-induced seizures.

Series [4] concerns motor impairment on rotarod. The series can be described thus: Rotarod test (acute neurotoxicity, NT). In kind it is in vivo. The conditions noted are these: ip, 100 mg/kg, 0.5 h. As to the method:
In this test mice were trained to balance on an accelerating rotarod that rotated at 10 rotations per minute (Rotarod apparatus, May Commat RR0711, Turkey; rod diameter: 3 cm). During the training session, the animals were placed on a rotating rod for 3 min with an unlimited number of trials. Proper experiment was conducted 24 h after the training trial. On the test day, trained mice were intraperitoneally pretreated with the test compound at a dose of 100 mg/kg and just before the MES test were tested on the rotarod. Neurotoxicity was indicated by the inability of the animal to maintain equilibration on the rod for 1 min. […] Each group consisted of six animals.

Series [5] deals with latency time to pain reaction. The experiment in a line: Hot plate test. In kind it is in vivo. The following applies: mice, 5 mg/kg, p < 0.001. The protocol: The hot plate test was carried out based on the Eddy and Leimbach (1953) method. In this test, the apparatus was equipped with an electrically heated surface with a temperature controller that maintains surface temperature to a set point. Herein, the temperature was set at 55 °C. The animals were treated ip either with the test compounds, or vehicle 30 min before placing the animal on a hot plate apparatus. Latency time to pain reaction, i.e., the time until the animal licked its back paws or jumped was recorded by means of the stopwatch.

Molecules are shown by their SMILES. Where a name gives a salt, the structure may show the parent alone. Some results are limits rather than exact numbers.

`Cc1ccsc1C1CC(=O)N(CC(=O)N2CCN(c3ccc(Cl)c(Cl)c3)CC2)C1=O` (racemic) [Compound 17, (R,S)-1-(2-(4-(3,4-Dichlorophenyl)piperazin-1-yl)-2-oxoethyl)-3-(3-methylthiophen-2-yl)pyrrolidine-2,5-dione]: the responders at 100 mg/kg in series [1] is 0%; in series [2], 50%. Also, in series [2] (mice ip, 95% confidence limit in brackets), the ED50 is above 150 mg/kg. Further, the “scPTZ: effect in words” value in series [3] is on record as “no significant effect”. Moreover, in series [4], the “NT: number of mice with motor impairment/number of mice tested” value is listed as 0/4.
On to `Cc1ccsc1C1CC(=O)N(CC(=O)N2CCN(c3ccccc3Cl)CC2)C1=O` (racemic) [Compound 13, (R,S)-1-(2-(4-(2-Chlorophenyl)piperazin-1-yl)-2-oxoethyl)-3-(3-methylthiophen-2-yl)pyrrolidine-2,5-dione], for which the melting point was in the range of 141 to 143 °C. In series [1], the responders at 100 mg/kg is 0%. Also, the responders at 100 mg/kg in series [2] is 25%. Further, in series [4], the “NT: number of mice with motor impairment/number of mice tested” value is 0/4.
The corresponding values for `Cc1ccsc1C1CC(=O)N(CC(=O)N2CCN(c3cccc(C(F)(F)F)c3)CC2)C1=O` (racemic) [Compound 12, (R,S)-3-(3-Methylthiophen-2-yl)-1-(2-oxo-2-(4-(3-(trifluoromethyl)phenyl)piperazin-1-yl)ethyl)pyrrolidine-2,5-dione] are 135 to 137 °C, 0%, 0% and 1/4.
`Cc1ccsc1C1CC(=O)N(CCCN2CCN(c3ccc(F)cc3)CC2)C1=O` (racemic) (as salt: hydrochloride) [Compound 5, (R,S)-1-(3-(4-(4-Fluorophenyl)piperazin-1-yl)propyl)-3-(3-methylthiophen-2-yl)pyrrolidine-2,5-dione hydrochloride] displayed a melting point of 160 to 162 °C.
`Cc1ccsc1C1CC(=O)N(CCCN2CCN(c3ccc(Cl)cc3)CC2)C1=O` (racemic) (as salt: hydrochloride) [Compound 8, (R,S)-1-(3-(4-(4-Chlorophenyl)piperazin-1-yl)propyl)-3-(3-methylthiophen-2-yl)pyrrolidine-2,5-dione hydrochloride]: the melting point was in the range of 68 to 70 °C.
`Cc1ccsc1C1CC(=O)N(CC(=O)N2CCOCC2)C1=O` (racemic) [Compound 10, (R,S)-3-(3-Methylthiophen-2-yl)-1-(2-morpholino-2-oxoethyl)pyrrolidine-2,5-dione] gave a melting point of 142 to 144 °C. In addition, the responders at 100 mg/kg in series [1] was 0%. Also, the responders at 100 mg/kg in series [2] was 25%. Further, the “NT: number of mice with motor impairment/number of mice tested” value in series [4] was 0/4.
The corresponding values for `Cc1ccsc1C1CC(=O)N(CC(=O)N2CCN(c3ccc(F)cc3)CC2)C1=O` (racemic) [Compound 11, (R,S)-1-(2-(4-(4-Fluorophenyl)piperazin-1-yl)-2-oxoethyl)-3-(3-methylthiophen-2-yl)pyrrolidine-2,5-dione] are 165 to 166 °C, 0%, 0% and 0/4.
In turn, `Cc1ccsc1C1CC(=O)N(CC(=O)N2CCN(c3ccc(Cl)cc3)CC2)C1=O` (racemic) [Compound 15, (R,S)-1-(2-(4-(4-Chlorophenyl)piperazin-1-yl)-2-oxoethyl)-3-(3-methylthiophen-2-yl)pyrrolidine-2,5-dione] came in with a melting point of 179 to 181 °C. In series [1], the responders at 100 mg/kg is 0%. Further, in series [2], the responders at 100 mg/kg is 25%. Also, the “NT: number of mice with motor impairment/number of mice tested” value in series [4] is recorded as 0/4.
For `Cc1ccsc1C1CC(=O)N(CCCN2CCN(c3cccc(Cl)c3)CC2)C1=O` (racemic) [Compound 7, (R,S)-1-(3-(4-(3-Chlorophenyl)piperazin-1-yl)propyl)-3-(3-methylthiophen-2-yl)pyrrolidine-2,5-dione hydrochloride], the responders at 100 mg/kg in series [1] and in series [2] was 0% throughout. Further, the “NT: number of mice with motor impairment/number of mice tested” value in series [4] was 2/4.
Molecule `Cc1ccsc1C1CC(=O)N(CCCN2CCN(c3cccc(Cl)c3)CC2)C1=O` (racemic) (as salt: hydrochloride) [Compound 7, (R,S)-1-(3-(4-(3-Chlorophenyl)piperazin-1-yl)propyl)-3-(3-methylthiophen-2-yl)pyrrolidine-2,5-dione hydrochloride] had a melting point of 181.5 to 183.5 °C.
Turning to `Cc1ccsc1C1CC(=O)N(CCCN2CCN(c3ccc(F)cc3)CC2)C1=O` (racemic) [Compound 5, (R,S)-1-(3-(4-(4-Fluorophenyl)piperazin-1-yl)propyl)-3-(3-methylthiophen-2-yl)pyrrolidine-2,5-dione hydrochloride], the responders at 100 mg/kg in series [1] and in series [2] was 0% in each case. Moreover, the “NT: number of mice with motor impairment/number of mice tested” value in series [4] is given as 4/4.
Molecule `Cc1ccsc1C1CC(=O)N(CCCN2CCN(c3cccc(C(F)(F)F)c3)CC2)C1=O` (racemic) (as salt: hydrochloride) [Compound 6, (R,S)-3-(3-Methylthiophen-2-yl)-1-(3-(4-(3-(trifluoromethyl)phenyl)piperazin-1-yl)propyl)pyrrolidine-2,5-dione hydrochloride] came in with a melting point of 183 to 185 °C.
On the same count and under the same terms, then `Cc1ccsc1C1CC(=O)N(CCCN2CCN(c3ccc(Cl)c(Cl)c3)CC2)C1=O` (racemic) (as salt: hydrochloride) [Compound 9, (R,S)-1-(3-(4-(3,4-Dichlorophenyl)piperazin-1-yl)propyl)-3-(3-methylthiophen-2-yl)pyrrolidine-2,5-dione hydrochloride], with 101 to 103 °C.
The molecule `Cc1ccsc1C1CC(=O)N(CC(=O)N2CCN(c3cccc(Cl)c3Cl)CC2)C1=O` (racemic) [Compound 16, (R,S)-1-(2-(4-(2,3-Dichlorophenyl)piperazin-1-yl)-2-oxoethyl)-3-(3-methylthiophen-2-yl)pyrrolidine-2,5-dione] had a melting point of 112 to 113.5 °C. For the same molecule, the responders at 100 mg/kg in series [1] was 0%. Moreover, the responders at 100 mg/kg in series [2] is 0%. Moreover, in series [4], the “NT: number of mice with motor impairment/number of mice tested” value is on record as 0/4.
For `CN1CC[C@]23c4c5ccc(O)c4O[C@H]2[C@@H](O)C=C[C@H]3[C@H]1C5` [morphine, reference compound], in series [5], the “Hot plate: prolongation of latency time to pain reaction” value is 74%.
Regarding `Cc1ccsc1C1CC(=O)N(CCCN2CCN(c3ccc(Cl)cc3)CC2)C1=O` (racemic) [Compound 8, (R,S)-1-(3-(4-(4-Chlorophenyl)piperazin-1-yl)propyl)-3-(3-methylthiophen-2-yl)pyrrolidine-2,5-dione hydrochloride], the responders at 100 mg/kg in series [1] and in series [2] was 25% in each case. Also, in series [4], the “NT: number of mice with motor impairment/number of mice tested” value was 0/4.
